In brackets after ≈: the same amount, converted by molar mass.
How the values were obtained:
ArgB [1] = biological target: T1, ArgB (Mycobacterium tuberculosis, UniProt P9WQ01); assay: Differential scanning fluorimetry (DSF) fragment screening against ArgB; format: binding; details: fragments at 5 mM, 10 µM ArgB, 5% DMSO
Procedure: Fragment screening was carried out in a 96-well PCR plate using a CFX Connect Real-time PCR Detection System (Bio-Rad) for DSF. For ArgB, each 25 μL reaction mixture contained 10 µM ArgB, 100 mM HEPES (pH 7.5), 200 mM NaCl, 5x SYPRO Orange, 5% DMSO (v/v), and fragments at 5 mM. For ArgF each 25 μL reaction mixture contained 5 µM ArgF, 25 mM Tris-HCl (pH 8.0), 150 mM NaCl, 5x SYPRO Orange dye, 5 mM fragments and 5% DMSO (v/v). For ArgC and ArgD, the 25 μL reaction volume consisted of the following: 2.5 μM ArgC/5 μM ArgD, 100 mM sodium phosphate pH 7, 200 mM NaCl, 5x SYPRO Orange, and 5 mM fragments (960 fragment library). The protocol implemented increased temperature by 0.5 °C after every 30 s, going from 25 °C to 95 °C and measuring SYPRO Orange fluorescence for each temperature cycle. The melt curve RFU (relative fluorescence units) and derivative -d(RFU)/dT values were analysed and plotted using a macros-enabled Excel Workbook: the minima of the melt curves were recorded as the melting temperature (Tm) of the enzymes in the presence of each fragment. The Tm of the reference control (protein in the presence of DMSO) was subtracted from all the readings to calculate ΔTm.

ArgB [2] = biological target: T1, ArgB; assay: Ligand-observed NMR (CPMG) with ArgB, incl. displacement experiments; format: binding; details: 2 mM fragment, 10 µM ArgB; for NMR competition with natural ligands (ATP, NAG, L-arginine): 1 mM each natural ligand
ArgB [3] = biological target: T1, ArgB; assay: Ligand-observed NMR (STD) with ArgB; format: binding; details: 2 mM fragment, 10 µM ArgB
ArgB [4] = biological target: T1, ArgB; assay: biochemical; format: binding; details: 25 °C, single-site model; read-out: ITC Kd
ArgB [5] = biological target: T1, ArgB; assay: ArgB enzymatic assay (ADP release coupled to NADH oxidation, pyruvate kinase/lactate dehydrogenase); format: biochemical; details: for IC50: 0.5 µM ArgB, 0.3 mM ATP, 1.25 mM NAG, 10% DMSO, read-out: IC50; for Nature of ArgB inhibition in enzymatic competition assays: 0.3 mM ATP or NAG, other substrate varied
Procedure: ArgB activity was assessed by a colorimetric assay that followed the release of ADP by measuring the oxidation of NADH at 340 nm, for 30 min, in the presence of pyruvate kinase and lactate dehydrogenase in a PHERAstar plate-reader (BMG-Labtech). […]. Inhibitors were also individually screened against the coupled enzymes to eliminate any compounds interfering with the other assay components. Competition assays were performed in the same conditions using 0.3 mM of ATP or NAG and varying the other substrate concentration.

M. tuberculosis H37Rv = assay: microbe, parasite or virus in culture; format: cell-based, Mycobacterium tuberculosis; details: for MIC: Mycobacterium tuberculosis, media without arginine; for Inhibitory activity on growth with arginine present: arginine (1 mM) in the media
M. tuberculosis ΔargB-c = assay: microbe, parasite or virus in culture; format: cell-based, Mycobacterium tuberculosis; details: for MIC: Mycobacterium tuberculosis
[6] = system: M. tuberculosis MDR strain V2475; assay: microbe, parasite or virus in culture; format: cell-based, Mycobacterium tuberculosis; details: for MIC: Mycobacterium tuberculosis
ArgF [7] = biological target: T2, ArgF (Mycobacterium tuberculosis, UniProt P9WIT9); assay: biochemical; format: binding; details: fragments at 5 mM, 5 µM ArgF, 5% DMSO; read-out: DSF ΔTm
T2 sequence (P9WIT9 whole entry, the tested form may be a part): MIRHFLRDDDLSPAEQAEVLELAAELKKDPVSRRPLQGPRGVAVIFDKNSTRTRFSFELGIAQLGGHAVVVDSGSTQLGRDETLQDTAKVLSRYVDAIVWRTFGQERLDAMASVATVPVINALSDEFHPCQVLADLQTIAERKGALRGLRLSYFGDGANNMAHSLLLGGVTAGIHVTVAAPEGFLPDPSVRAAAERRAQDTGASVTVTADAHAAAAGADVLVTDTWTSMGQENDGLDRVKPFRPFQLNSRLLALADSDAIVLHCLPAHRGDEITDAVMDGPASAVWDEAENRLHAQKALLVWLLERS
Procedure: Fragment screening was carried out in a 96-well PCR plate using a CFX Connect Real-time PCR Detection System (Bio-Rad) for DSF. […] For ArgF each 25 μL reaction mixture contained 5 µM ArgF, 25 mM Tris-HCl (pH 8.0), 150 mM NaCl, 5x SYPRO Orange dye, 5 mM fragments and 5% DMSO (v/v). […] The protocol implemented increased temperature by 0.5 °C after every 30 s, going from 25 °C to 95 °C and measuring SYPRO Orange fluorescence for each temperature cycle. The melt curve RFU (relative fluorescence units) and derivative -d(RFU)/dT values were analysed and plotted using a macros-enabled Excel Workbook: the minima of the melt curves were recorded as the melting temperature (Tm) of the enzymes in the presence of each fragment. The Tm of the reference control (protein in the presence of DMSO) was subtracted from all the readings to calculate ΔTm.

ArgF [8] = biological target: T2, ArgF; assay: Isothermal titration calorimetry with ArgF; format: binding; details: 25 °C, single-site model; read-out: ITC Kd
Procedure: ArgF was dialysed in 50 mM HEPES pH 8.0, 200 mM NaCl before it was loaded into the calorimetry cell at concentrations of 75–100 μM with the addition of 1 mM DTT. Ligand solutions at concentrations of 1 mM were dissolved in the same buffer and typically injected between 0.5 μL and 2 μL at 150 s intervals with stirring at 750 rpm. Buffer-ligand titrations were carried out as reference runs and subtracted from the protein–ligand titration to remove the heat of dilution. Data were analysed by fitting a simple single-site model using Origin software (Microcal).

M. tuberculosis = system: M. tuberculosis; design: method as in PMID 29483133; details: BALB/c mice, chemical inhibition of ArgJ; cited from earlier work
ArgD [9] = biological target: T3, ArgD (Mycobacterium tuberculosis, UniProt P9WPZ7); assay: Differential scanning fluorimetry (DSF) against ArgD; format: binding; details: fragments at 5 mM, PLP-unsaturated ArgD
T3 sequence (P9WPZ7 whole entry, the tested form may be a part): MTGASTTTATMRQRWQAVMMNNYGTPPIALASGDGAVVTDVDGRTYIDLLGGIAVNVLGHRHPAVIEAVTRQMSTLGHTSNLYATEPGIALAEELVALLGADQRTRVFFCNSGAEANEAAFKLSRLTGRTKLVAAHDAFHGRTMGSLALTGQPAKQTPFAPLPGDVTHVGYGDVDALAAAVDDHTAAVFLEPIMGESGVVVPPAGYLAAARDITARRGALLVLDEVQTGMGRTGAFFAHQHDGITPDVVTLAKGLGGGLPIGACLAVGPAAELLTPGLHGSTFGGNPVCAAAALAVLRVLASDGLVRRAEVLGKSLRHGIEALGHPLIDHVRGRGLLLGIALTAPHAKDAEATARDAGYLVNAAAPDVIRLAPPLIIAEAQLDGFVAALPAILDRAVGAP

ArgD [10] = biological target: T3, ArgD; assay: Surface plasmon resonance with immobilised ArgD; format: binding; details: fragments at 1 mM, adjusted for molecular weight
ArgD [11] = biological target: T3, ArgD; assay: ArgD end point enzymatic assay (reverse reaction, 2-aminobenzaldehyde, 440 nm); format: biochemical
Procedure: To assess the activity of ArgD an end point assay that follows the reverse reaction of the enzyme was used in the presence and absence of fragments. Reactions (100 μL) were set up containing the following: 100 mM Tris-HCl pH 8, 3 mM N-acetylornithine (NAO), 3.4 mM α-KG, 20 μM PLP and 4 μM enzyme. Duplicate reaction mixtures were prepared for each time point and 8 time points (0, 5, 10, 15, 20, 30, 45, 60 min) were tested in total. Two controls were prepared: one with all reaction components except the enzyme, and the other with all reaction components except NAO (NAO was added after HCl treatment). The reactions tubes were allowed to equilibrate in a heating block set at 37 °C for two minutes, and the enzyme was added to initiate the reaction. After the stipulated incubation times, contents of the reaction tubes were quickly transferred to 1.5 ml microcentrifuge tubes containing 60 μL of 6 N HCl to stop the reactions. These tubes were then kept in a heating block set at 95 °C for 30 min, after which they were cooled to 25 °C in a water bath. 200 μL of 3.6 M sodium acetate was added to each tube (final concentration of 1.8 M), along with 40 μL of 30 mM 2-aminobenzaldehyde (final concentration of 3 mM in a total volume of 400 μL). A yellow colouration started developing as soon as the latter was added, the contents were vortexed and the tubes were incubated at 25 °C for 15 min. 200 μL of each reaction mixture was transferred into wells of a 96-well flat bottom UV transparent microplate, and absorbance at 440 nm was measured using the PHERAstar plate reader. All experiments were performed at least in triplicate in a PHERAstar plate-reader (BMG-Labtech) and the control without ArgD was used for blank subtraction. Data were analysed with GraphPad Prism (Graphpad Software). All reagents were obtained from Sigma-Aldrich.
Aminotransferases are often assayed for the reverse reactions they catalyse because in most cases substrates for the forward reaction are not commercially sold. […]

Compound | ΔTm at 5000 µM (ArgB [1]) | CPMG (ArgB [2]) | NMR competition with natural ligands (ATP, NAG, L-arginine) (ArgB [2]) | STD (ArgB [3]) | Kd (ArgB [4]) | IC50 (ArgB [5]) | Nature of ArgB inhibition in enzymatic competition assays (ArgB [5]) | MIC (M. tuberculosis H37Rv) | Inhibitory activity on growth with arginine present (M. tuberculosis H37Rv) | Inhibitory activity on growth with arginine present (M. tuberculosis ΔargB-c) | MIC (M. tuberculosis ΔargB-c) | MIC [6] | ΔTm at 5000 µM (ArgF [7]) | Kd (ArgF [8]) | further results
O=c1cc(C(F)(F)F)[nH]c2c(C(F)(F)F)cccc12 [NMR711, 2,8-bis(trifluoromethyl)-1H-quinolin-4-one] | 7.9 °C | binds | not competitive | binds | 7.7 ± 0.8 µM | 366 ± 4 µM | non-competitive | 25 to 50 µg/mL (≈ 88.9 to 178 µM) | inhibitory | inhibitory | 25 to 50 µg/mL (≈ 88.9 to 178 µM) | 25 to 50 µg/mL (≈ 88.9 to 178 µM) | – | – | Inhibitory activity on growth with arginine present ([6]; V2475, arginine (1 mM) in the media): inhibitory
OB(O)c1cc(Cl)cc(Cl)c1 [NMR812] | – | – | – | – | – | – | – | – | – | – | – | – | 3.6 °C | 120 ± 30 µM | –
O=c1cc[nH]c2c(C(F)(F)F)cccc12 [NMR446, 8-(trifluoromethyl)-1H-quinolin-4-one] | 8 °C | binds | not competitive | binds | 24 ± 1.5 µM | 707 ± 7 µM | non-competitive | > 200 µg/mL | no inhibitory activity | no inhibitory activity | > 200 µg/mL | > 200 µg/mL | – | – | –
O=C(Nc1cccc2c(=O)cc(-c3nnn[nH]3)oc12)c1ccc(OCCCCc2ccccc2)cc1 [Pranlukast] | – | – | – | – | – | – | – | – | – | – | – | – | – | – | Effect on chronic M. tuberculosis infection (M. tuberculosis): cleared a chronic M. tuberculosis infection
Cc1sc(N)nc1-c1ccccc1 [NMR007] | – | – | – | – | – | – | – | – | – | – | – | – | 3 °C | 161 ± 20 µM | –
O=C(O)c1cc2ccccc2cc1O [NMR608, 3-Hydroxy-2-naphthoic acid] | – | – | – | – | – | – | – | – | – | – | – | – | – | – | ΔTm at 5000 µM (ArgD [9]): 2.4 °C; SPR Binding Response with PLP injection (ArgD [10]): 50.3 RU; % inhibition at 2 mM (ArgD [11]; 2 mM fragment, 4 μM ArgD): 16.6%; inhibition at 2000 µM (ArgD [11]; 2 mM fragment, 4 μM ArgD): 16%; inhibition at 4000 µM (ArgD [11]; read-out: % inhibition at 4 mM, 4 mM fragment, 4 μM ArgD): 31%

From publication PMC8220418, “A fragment-based approach to assess the ligandability of ArgB, ArgC, ArgD and ArgF in the L-arginine biosynthetic pathway of Mycobacterium tuberculosis” (Computational and Structural Biotechnology Journal, 2021)
